Results: patent US7208512B2, “Benzodifuranimidazoline and benzofuranimidazoline derivatives and their use for the treatment of glaucoma” (Alcon, Inc., priority 2001, dated 2007)

Legend:
5-HT2 receptor [1] = target: T1, 5-HT2 receptor (Rattus norvegicus, UniProt P14842); experiment: 5-HT2 functional assay: phosphoinositide (PI) turnover in A7r5 rat vascular smooth muscle cells; format: cell-based; design: A7r5 rat vascular smooth muscle cells; endogenous in cells; host or cells: A7r5 rat vascular smooth muscle cells; conditions: [3H]-IPs production in A7r5 cells
Protocol: The relative agonist activity of serotonergic compounds at the 5-HT2 receptor can be determined in vitro using the ability of the compounds to stimulate the production of [^3H]inositol phosphates in [^3H]myo-inositol-labeled A7r5 rat vascular smooth muscle cells by their ability to activate the enzyme phospholipase C. These cells are grown in culture plates, maintained in a humidified atmosphere of 5% CO2 and 95% air and fed semi-weekly with Dulbecco's modified Eagle medium (DMEM) containing 4.5 g/l glucose and supplemented with 2 mM glutamine, 10 μg/ml gentamicin, and 10% fetal bovine serum. […] Confluent cells are exposed for 24–30 hrs to 1.5 μCi [^3H]-myo-inositol (18.3 Ci/mmol) in 0.5 ml of serum-free medium. Cells are then rinsed once with DMEM/F-12 containing 10 mM LiCl prior to incubation with the test agent (or solvent as the control) in 1.0 ml of the same medium for 1 hr at 37° C., after which the medium is aspirated and 1 ml of cold 0.1 M formic acid added to stop the reaction. […] The eluate (4 ml) is collected, mixed with 15 ml scintillation fluid, and the total [^3H]-IPs determined by scintillation counting on a beta-counter. Concentration-response data are analyzed by the sigmoidal fit function of the Origin Scientific Graphics software (Microcal Software, Northampton, Mass.) to determine agonist potency (EC50 value) and efficacy (Emax). […]

5-HT2 receptor [2] = target: T1, 5-HT2 receptor; experiment: 5-HT2 receptor binding assay ([125I]DOI competition, rat cerebral cortex homogenates)
Protocol: Aliquots of post mortem rat cerebral cortex homogenates (400 μl) dispersed in 50 mM TrisHCl buffer (pH 7.4) are incubated with [^125I]DOI (80 pM final) in the absence or presence of methiothepin (10 μM final) to define total and non-specific binding, respectively, in a total volume of 0.5 ml. The assay mixture is incubated for 1 hour at 23° C. in polypropylene tubes and the assays terminated by rapid vacuum filtration over Whatman GF/B glass fiber filters previously soaked in 0.3% polyethyleneimine using ice-cold buffer. Test compounds (at different concentrations) are substituted for methiothepin. Filter-bound radioactivity is determined by scintillation spectrometry on a beta counter. The data are analyzed using a non-linear, iterative curve-fitting computer program (Bowen et al. 1995) to determine the compound affinity parameter.

T1 sequence (P14842 whole entry): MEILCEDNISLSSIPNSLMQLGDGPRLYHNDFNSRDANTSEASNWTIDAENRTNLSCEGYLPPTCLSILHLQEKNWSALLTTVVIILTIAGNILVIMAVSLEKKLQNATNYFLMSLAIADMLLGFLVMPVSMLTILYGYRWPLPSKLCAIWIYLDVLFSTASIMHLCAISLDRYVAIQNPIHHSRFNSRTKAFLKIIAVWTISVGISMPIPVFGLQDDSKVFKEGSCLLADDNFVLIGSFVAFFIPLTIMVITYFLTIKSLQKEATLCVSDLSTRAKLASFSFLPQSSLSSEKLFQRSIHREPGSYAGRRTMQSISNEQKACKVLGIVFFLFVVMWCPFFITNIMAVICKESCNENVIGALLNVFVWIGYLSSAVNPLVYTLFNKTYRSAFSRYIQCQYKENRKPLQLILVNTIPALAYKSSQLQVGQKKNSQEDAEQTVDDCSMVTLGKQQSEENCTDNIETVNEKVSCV

`COc1cc(C[C@@H](C)N)c(OC)cc1I` [(R)-DOI, reference compound] was tested, and the EC50 (5-HT2 receptor [1]) was 277 nM and the IC50 (5-HT2 receptor [2]) was 0.46 nM.
